The values that follow come from patent publication US20130224761A1, “NON COVALENT MOLECULAR STRUCTURE, COMPRISING A PORPHYRIN BASED GLYCOCONJUGATE, DEVICE COMPRISING THE SAME AND ITS USE FOR DETECTION OF LECTIN” (CENTRE NATIONAL DE LA RECHERCHE SCIENTIFIQUE (CNRS), priority 2011, published 2013).

For one assay, the system named is PA-IIL lectin. To be noted: SWNT-FET functionalized with glycoconjugate; 5 μM lectin per FIG. 5 legend (1 μM elsewhere in the source), 5 μM Ca2+, PBS pH 7.
Assay [1] concerns ConA lectin. Nature of the assay: SWNT-FET electronic detection of glycoconjugate-lectin interaction (G vs Vg). The class given is binding, Canavalia ensiformis. To be noted: SWNT-FET functionalized with glycoconjugate; 5 μM lectin, 5 μM Ca2+, PBS pH 7. The source says:
ConA (25 kDa) is a plant lectin from Canavalia ensiformis that is specific for α-D-mannose and is available commercially from Sigma and used without further purification.

Assay [2] concerns ConA lectin. Description: CCG-FET electronic detection of glycoconjugate-lectin interaction (G vs Vg). The class given is binding, Canavalia ensiformis. To be noted: CCG-FET functionalized with glycoconjugate; 2 μM lectin, 5 μM Ca2+, PBS. As for the experimental part: (§1) FIG. 6 illustrates the electronic detection of carbohydrate-lectin interactions.
(§2) For each glycoconjugate functionalized device, non-specific lectins were tested first, followed by washing procedures and measuring of specific lectin. The final transfer characteristics were tested again in the configuration mentioned above.

The subject of assay [3] is ConA lectin. Description: AFM imaging of SWNT functionalized with glycoconjugate before and after ConA lectin attachment. The class given is binding, Canavalia ensiformis. To be noted: 5 μM Ca2+. The protocol: Atomic force microscope (AFM) images (FIG. 4) were obtained using scanning probe microscope (Veeco Nanoscope II) in a tapping mode configuration. Samples were prepared by spin coating of bare or functionalized SWNTs onto a freshly cleaved sheet of mica. The images were taken after 30 min of drying in ambient and subsequent washing with PBS solution (for functionalized SWNTs).
FIG. 4a depicts a small bundle of bare SWNTs with diameter of 3.4 nm. After non covalent functionalization with glycoconjugate “5b” (non covalent molecular structure “SWNT-5b”), SWNT bundles show diameters of 11.7-14.6 nm (FIG. 4b). Con A lectin binding to the functionalized “SWNT-5b” nanostructures (“SWNT-5b-ConA”) increases SWNT diameters to 18.3 nm (FIG. 4c).

In assay [4] the target is T1, PA-IL lectin (Pseudomonas aeruginosa, UniProt Q05097).
T1 construct: made in house; host or cells: Escherichia coli
T1 sequence (Q05097 whole entry): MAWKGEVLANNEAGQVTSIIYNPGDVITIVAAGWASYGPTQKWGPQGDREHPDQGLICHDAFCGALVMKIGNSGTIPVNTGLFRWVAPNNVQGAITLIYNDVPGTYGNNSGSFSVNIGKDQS
Nature of the assay: CCG-FET electronic detection of glycoconjugate-lectin interaction (G vs Vg). The class given is binding. To be noted: CCG-FET functionalized with glycoconjugate; 2 μM lectin, 5 μM Ca2+, PBS. The protocol:
as §1, §2

Assay [5] has as its target T1, PA-IL lectin. Nature of the assay: SWNT-FET electronic detection of glycoconjugate-lectin interaction (G vs Vg). The class given is binding. To be noted: SWNT-FET functionalized with glycoconjugate; 5 μM lectin, 5 μM Ca2+, PBS pH 7.
Method: (§3) Lectin attachment was performed in the presence of 5 μM Ca^2+.
(§4) The electrical performance of each such obtained “SWNT-FET” device was investigated in electrolyte gated FET device configuration. […] A small fluid (1 mL) chamber was placed over the SWNT-FET device to control the liquid environment using phosphate buffer solution (PBS) at pH 7. A liquid gate potential (−0.75V to 0.75 V) with respect to the grounded drain electrode was applied using Ag/AgCl (3 M KCl) reference electrode submerged in the electrolyte. The drain current of the device was measured at a constant source-drain voltage of 50 mV.
This step was followed by incubating the chips for 30 minutes in different concentrations of lectin solutions prepared in PBS with 5 μM CaCl2 and latter rinsing with PBS solution.

Method for PA-IIL lectin: as §3, §4
Surface functionalization of SWNT FET device with each porphyrin based glycoconjugate respectively named “5a”, “5b” and “5c” was performed by incubating them in their 5 μM solution in deionized water for 2 hours followed by rinsing with deionized water. This step was followed by incubating the chips for 30 minutes in different concentrations of lectin solutions prepared in PBS with 5 μM CaCl2 and latter rinsing with PBS solution.

“5,10,15,20-Tetrakis(4′-{1-[(α-D-mannopyranosyloxy)-3,6-dioxaoct-8-yl]-1,2,3-triazol-4-yl}methyleneoxyphenyl)-Zn-(II)-porphyrin [5b]”: the “change in G vs Vg curve (threshold voltage, conductance) on treating with PA-IIL lectin” value with PA-IIL lectin is listed as “no significant change”. Further, the “change in G vs Vg curve (threshold voltage, conductance) on treating with ConA lectin” value in the assay with ConA lectin [1] was “positive interaction”; with ConA lectin [2], “negative shift in threshold voltage and further decrease in conductance”. Also, the “binding of Con A lectin to glycoconjugate on the surface of SWNTs (AFM)” value with ConA lectin [3] was “specific binding”. Moreover, the “SWNT diameter after Con A lectin binding to functionalized SWNT (AFM)” value with ConA lectin [3] (SWNT-5b-ConA, 11.7-14.6 nm before lectin, bare SWNT bundle 3.4 nm) was determined as 18.3 nm. The “change in G vs Vg curve (threshold voltage, conductance) on treating with PA-IL lectin” value on PA-IL lectin [4] was “no significant change”.
On to “5,10,15,20-Tetrakis(4′-{1-[(β-D-galactopyranosyloxy)-3,6-dioxaoct-8-yl]-1,2,3-triazol-4-yl}methyleneoxyphenyl)-Zn-(II)-porphyrin [5a]”, for which the “change in G vs Vg curve (threshold voltage, conductance) on treating with PA-IL lectin” value at PA-IL lectin [5] is “selective response”; at PA-IL lectin [4] it was “negative shift in threshold voltage and further decrease in conductance”. In addition, the “change in G vs Vg curve (threshold voltage, conductance) on treating with ConA lectin” value in the assay on ConA lectin [2] is given as “no significant change”.
With `C[C@@H]1O[C@@H](OCCOCCOCCn2cc(COc3ccc(-c4c5nc(c(-c6ccc(OCc7cn(CCOCCOCCO[C@@H]8O[C@@H](C)[C@@H](O)[C@@H](O)[C@@H]8O)nn7)cc6)c6ccc([n-]6)c(-c6ccc(OCc7cn(CCOCCOCCO[C@@H]8O[C@@H](C)[C@@H](O)[C@@H](O)[C@@H]8O)nn7)cc6)c6nc(c(-c7ccc(OCc8cn(CCOCCOCCO[C@@H]9O[C@@H](C)[C@@H](O)[C@@H](O)[C@@H]9O)nn8)cc7)c7ccc4[n-]7)C=C6)C=C5)cc3)nn2)[C@@H](O)[C@H](O)[C@@H]1O.[Zn+2]` [5c, 5,10,15,20-Tetrakis(4′-{1-[(α-L-fucopyranosyloxy)-3,6-dioxaoct-8-yl]-1,2,3-triazol-4-yl}methyleneoxyphenyl)-Zn-(II)-porphyrin], the “change in G vs Vg curve (threshold voltage, conductance) on treating with PA-IIL lectin” value in the assay with PA-IIL lectin is listed as “positive interactions”.
